Laboratory results as given in patent US20110028719A1, “SCREENING METHODS FOR AMYLOID BETA MODULATORS” (priority 2006, published 2011).

Each compound was assayed against immobilized Aβ fibrils (Homo sapiens, UniProt P05067) (assay: FAC-MS assay of free Aβ monomer (indicator) binding to immobilized Aβ fibrils in the presence of test compounds). Settings: not given.
Sequence of immobilized Aβ fibrils (P05067 672-713 limits assumed): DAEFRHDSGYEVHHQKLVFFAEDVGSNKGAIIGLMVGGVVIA

With `CC1CCC(C(C)C)C(OC(=O)c2ccccc2N)C1` (stereo not drawn) the “Aβ Shift” value was 1.

Same assay, conditions: FAC-MS % shift of breakthrough time of free Aβ1-42 monomer (1 μM) on immobilized Aβ fibrils; compounds 1-10 μM in 20 mM NH4OAc, 1% DMSO; void marker M3

First: O=C(/C=C/c1ccc(O)c(O)c1)O[C@@H]1C[C@](O)(C(=O)O)C[C@@H](O)[C@H]1O [Compound C-3878, Chlorogenic acid, reference compound]
Second: O=C(O)[C@]1(O)C[C@@H](O)[C@@H](O)[C@H](O)C1 [Compound 138622, 1R,3R,4R,5R-Quinic acid, reference compound]
The “% of Shift” value of the first is lower: 2% for the first, 3% for the second.

Going from `CO[C@H]1[C@H](O)[C@@H](O)[C@@H](O)[C@H](O)[C@@H]1O` [D-Pinitol, D-pinitol, reference compound] to `O[C@H]1[C@H](O)[C@@H](O)[C@H](O)[C@@H](O)[C@H]1O` [Myo, myo-inositol, reference compound], the “% of Shift” value rises from 3% to 34%.

`CCC(=O)OC1C(OC(=O)CC)C(OC(=O)CC)C(OC(=O)CC)C(OC(=O)CC)C1OC(=O)CC` (stereo not drawn) [Compound 37387006, 2,3,4,5,6-pentakis(propionyloxy)cyclohexyl propionate] and `CC(C)(C)C(=O)OC1C(OC(=O)C(C)(C)C)C(OC(=O)C(C)(C)C)C(OC(=O)C(C)(C)C)C(OC(=O)C(C)(C)C)C1OC(=O)C(C)(C)C` (stereo not drawn) [Compound 37387008, 2,3,4,5,6-pentakis[(2,2-dimethylpropanoyl)oxy]cyclohexyl pivalate] are the same in “% of Shift” value: 4% for the first, 4% for the second.

First: C[C@H]1O[C@H](OC2[C@@H](O)[C@@H](O)C(O)[C@H](O)[C@H]2O)[C@@H](N)C[C@@H]1N=C(N)C(=O)O.Cl (stereo partly drawn) [Compound K413, Kasugamycin hydrochloride, reference compound]
Second: O[C@H]1[C@H](O)[C@@H](O)[C@H](O)[C@@H](O)[C@@H]1O [AZD-103, scyllo-inositol, reference compound]
The “% of Shift” value of the first is lower: 2% for the first, 84% for the second.

`O=P(O)(O)O[C@H]1[C@H](OP(=O)(O)O)[C@@H](OP(=O)(O)O)[C@H](OP(=O)(O)O)[C@@H](OP(=O)(O)O)[C@H]1OP(=O)(O)O` [Compound P-3168, Phytic acid, reference compound] and `O=C(OC1C(O)C(OC(=O)c2ccccc2)C(OC(=O)c2ccccc2)C(OC(=O)c2ccccc2)C1OC(=O)c1ccccc1)c1ccccc1` (stereo not drawn) [Compound 37387010, 2,3,5,6-tatrakis(benzoyloxy)-4-hydroxycyclohexyl benzoate] are the same in “% of Shift” value: 2% for the first, 2% for the second.

`O[C@H]1[C@H](O)[C@@H](O)[C@@H]2O[C@@H]2[C@@H]1O` [Compound C5424, Conduritol B epoxide, reference compound] was tested, and the “% of Shift” value was 1%.

Same assay, conditions: FAC-MS screen; shift of free Aβ monomer breakthrough on immobilized Aβ fibrils in presence of compound; scale not given

Compared with `CC(C)CC(=O)O[C@@H]1[C@@H](OC(=O)CC(C)C)[C@H](OC(=O)CC(C)C)[C@H](O)[C@H](OC(=O)CC(C)C)[C@H]1OC(=O)CC(C)C`, `CC(C)C(=O)O[C@H]1[C@H](OC(=O)C(C)C)[C@@H](OC(=O)C(C)C)[C@H](OC(=O)C(C)C)[C@@H](OC(=O)C(C)C)[C@H]1OC(=O)C(C)C` is higher in “Aβ Shift” value: 2 for the first, 5 for the second.

`CC12CC3(C)CC(CC(=O)O)(C1)CC(CC(=O)O)(C2)C3` and `CC12CC3(C)CC(C(=O)O)(C1)CC(C(=O)O)(C2)C3` are the same in “Aβ Shift” value: 1 for the first, 1 for the second.

First: CC(O)C#CC1(O)C(C)CCCC1(C)C (stereo not drawn)
Second: CC1CC(NC(=O)C2(C)CC2(Cl)Cl)CC(C)(C)C1 (stereo not drawn)
The “Aβ Shift” value of the first is higher: 1 for the first, 0 for the second.

Compared with `CC1(C)CC2(C)CC(O)(C1)C13CCC(C)(C)CC1(C2)O3` (stereo not drawn), `CC12CC3(C)CC(C)(C1)CC(C(=O)NC(C)(C)C)(C2)C3` is higher in “Aβ Shift” value: 0 for the first, 2 for the second.

`Cc1cc(C(=O)NC2CCCC(C)C2C)c2ccccc2n1` (stereo not drawn) and `Cc1nn(CC(=O)NC2CCCC(C)C2C)c2ccccc12` (stereo not drawn) are the same in “Aβ Shift” value: 1 for the first, 1 for the second.

`CN(C)C(=S)NC(=O)C12CC3CC(C)(CC(C)(C3)C1)C2` and `CN(C)CCNC(=O)C12CC3CC(C)(CC(C)(C3)C1)C2` are the same in “Aβ Shift” value: 1 for the first, 1 for the second.

`CC12CC3(C)CC(C)(C1)CC(C(=O)NCC(=O)O)(C2)C3` and `COC(=O)CNC(=O)C12CC3(C)CC(C)(CC(C)(C3)C1)C2` are the same in “Aβ Shift” value: 1 for the first, 1 for the second.

`CC1CCC(C(C)C)C(OC(=O)CSC#N)C1` (stereo not drawn) and `CC1CCC(C(C)C)C(OC(=O)CN2CCOCC2)C1` (stereo not drawn) are the same in “Aβ Shift” value: 1 for the first, 1 for the second.

`CC1CC(NC(=O)c2nc[nH]n2)CC(C)(C)C1` (stereo not drawn) and `CC12CC3CC(C)(C1)CC(C(=O)Nc1nccs1)(C3)C2` are the same in “Aβ Shift” value: 1 for the first, 1 for the second.

`CC1CCC(C(C)C)C(OCCC[N+](C)(C)C)C1` (stereo not drawn) and `CC1CCC(C(C)C)C(OCC[N+](C)(C)C)C1` (stereo not drawn) are the same in “Aβ Shift” value: 2 for the first, 2 for the second.

`CC(O)C12C3C4C5C1C2C(Br)(C43)C51OCCO1` (stereo not drawn) and `O=C(O)C1C2C(=O)OC3C(Cl)C1C1(CC1)C32` (stereo not drawn) are the same in “Aβ Shift” value: 0 for the first, 0 for the second.

`CC(C)(C)C1CC(C(=O)O)CC(C(C)(C)C)C1` (stereo not drawn) and `COC1CCC(C(C)=O)C(O)C1` (stereo not drawn) are the same in “Aβ Shift” value: 1 for the first, 1 for the second.

`CCC12CC3CC(O)(CC(O)(C3)C1)C2` and `CC12CC3CC(O)(C1)CC(O)(C3)C2` are the same in “Aβ Shift” value: 1 for the first, 1 for the second.

First: CC12CC3(C)CC(C)(C1)CC(NC(=O)N1CCCC1)(C2)C3
Second: CC(=O)NC12CC3(C)CC(C)(CC(C)(C3)C1)C2
The “Aβ Shift” value of the first is higher: 1 for the first, 0 for the second.

`CC1CCCC(N2CNc3nc4ccccc4n3C2)C1C` (stereo not drawn) and `CC1CCCC(N/C=C2\C(=O)Nc3ccccc32)C1C` (stereo not drawn) are the same in “Aβ Shift” value: 2 for the first, 2 for the second.

`OCC1(CO)CCCC(CO)(CO)C1O` and `CC(C)=CCCC12CCC(CO)(CO1)C(C)C2` (stereo not drawn) are the same in “Aβ Shift” value: 1 for the first, 1 for the second.

`CCC1CC2(C(=O)NCc3ccco3)CC3(C)CC3(C1)C2` (stereo not drawn) and `CCCNC(=O)C12CC3(C)CC(C)(CC(C)(C3)C1)C2` are the same in “Aβ Shift” value: 1 for the first, 1 for the second.

First: CC12CC3(C)CC(C)(C1)CC(C(=O)O)(C2)C3
Second: CC12CC3(C)CC(C)(C1)CC(C(N)=O)(C2)C3
The “Aβ Shift” value of the first is higher: 2 for the first, 1 for the second.

`CC12CC3CC(C)(C1)CC(C(=O)NC1=NCCS1)(C3)C2` and `CC12CC3CC(C)(C1)CC(C(=O)Nc1nnn[nH]1)(C3)C2` are the same in “Aβ Shift” value: 1 for the first, 1 for the second.

Compared with `C/C(=N\O)C(=O)OC1CC(C)CCC1C(C)C` (stereo not drawn), `CC1CCC(C(C)C)C(OC(=O)NC(=O)C(F)(F)F)C1` (stereo not drawn) is higher in “Aβ Shift” value: 1 for the first, 2 for the second.

`CC1CC(C)C(C(=O)c2ccccc2)C(O)C1` (stereo not drawn) and `CC1CCC(C(C)C)C(OC(=O)CCc2ccccc2)C1` (stereo not drawn) are the same in “Aβ Shift” value: 1 for the first, 1 for the second.

`CC1CCC(N(CCCN)Cc2ccco2)CC1C` (stereo not drawn) and `CC1CCCC(C)C1CO` (stereo not drawn) are the same in “Aβ Shift” value: 1 for the first, 1 for the second.

First: CC12CC3CC(C)(C1)CC(N)(C3)C2
Second: CC12CC3CC(C)(C1)CC(C(=O)N1CCOCC1)(C3)C2
The “Aβ Shift” value of the first is higher: 2 for the first, 1 for the second.

`O=C(O)C1C2CC3C(C2Cl)C31` (stereo not drawn) and `CC(=O)C1C2CC3C(C2Cl)C31` (stereo not drawn) are the same in “Aβ Shift” value: 1 for the first, 1 for the second.

Going from `CC(C)C1CCC(C)C(OC(=O)C2C3CCCCC32)C1` (stereo not drawn) to `CC1CCCC(NC(=O)NC2CCCCC2)C1C` (stereo not drawn), the “Aβ Shift” value falls from 1 to 0.

`BrC1CC2OC2CC1Br` (stereo not drawn) and `COc1cccc(OC)c1C(=O)OC1CC(C)CC(C)C1` (stereo not drawn) are the same in “Aβ Shift” value: 0 for the first, 0 for the second.

Going from `O=C(O[C@@H]1[C@@H](OC(=O)c2ccccc2)[C@H](OC(=O)c2ccccc2)[C@H](O)[C@H](OC(=O)c2ccccc2)[C@H]1OC(=O)c1ccccc1)c1ccccc1` to `CC1CC2=C(/C(=N/O)C1)C1(O)CC(C)CC(C)(C2)C1` (stereo not drawn), the “Aβ Shift” value falls from 2 to 0.

`COCCNC(=O)NC12CC3(C)CC(C)(CC(C)(C3)C1)C2` and `CC1CCN(C(=O)C23CC4CC(C)(CC(C)(C4)C2)C3)CC1` are the same in “Aβ Shift” value: 1 for the first, 1 for the second.

Same assay, conditions: pretreatment of column with 1 to 10 μM; FIG. 5

`O[C@H]1[C@H](O)[C@@H](O)[C@H](O)[C@@H](O)[C@@H]1O` [AZD-103, scyllo-inositol, reference compound] was tested, and the “effect of pretreatment of immobilized Aβ aggregates” value was “prevents binding and/or breaks down of Aβ fibrils”.
